Data from patent US9796725B2, “Pyrazolopyrimidinyl inhibitors of ubiquitin-activating enzyme” (Millennium Pharmaceuticals, Inc., priority 2012, dated 2017).
pIC50: −log10 of the molar value.

Assays:
recombinant human UAE = recombinant human UAE (Homo sapiens (Human), UniProt P22314); experiment: Ubiquitin Activating Enzyme (UAE) HTRF Assay
Description: After incubation for 120 minutes, quantification of the FRET is performed on the Pherostar (BMG).
For compounds whose values are marked with an asterisk (*), mouse UAE was used. For all other compounds, human UAE was used.

[1] = test system: mouse acute myeloid leukemia (AML model); conditions: cited from earlier work

Chain of recombinant human UAE (P22314 whole entry): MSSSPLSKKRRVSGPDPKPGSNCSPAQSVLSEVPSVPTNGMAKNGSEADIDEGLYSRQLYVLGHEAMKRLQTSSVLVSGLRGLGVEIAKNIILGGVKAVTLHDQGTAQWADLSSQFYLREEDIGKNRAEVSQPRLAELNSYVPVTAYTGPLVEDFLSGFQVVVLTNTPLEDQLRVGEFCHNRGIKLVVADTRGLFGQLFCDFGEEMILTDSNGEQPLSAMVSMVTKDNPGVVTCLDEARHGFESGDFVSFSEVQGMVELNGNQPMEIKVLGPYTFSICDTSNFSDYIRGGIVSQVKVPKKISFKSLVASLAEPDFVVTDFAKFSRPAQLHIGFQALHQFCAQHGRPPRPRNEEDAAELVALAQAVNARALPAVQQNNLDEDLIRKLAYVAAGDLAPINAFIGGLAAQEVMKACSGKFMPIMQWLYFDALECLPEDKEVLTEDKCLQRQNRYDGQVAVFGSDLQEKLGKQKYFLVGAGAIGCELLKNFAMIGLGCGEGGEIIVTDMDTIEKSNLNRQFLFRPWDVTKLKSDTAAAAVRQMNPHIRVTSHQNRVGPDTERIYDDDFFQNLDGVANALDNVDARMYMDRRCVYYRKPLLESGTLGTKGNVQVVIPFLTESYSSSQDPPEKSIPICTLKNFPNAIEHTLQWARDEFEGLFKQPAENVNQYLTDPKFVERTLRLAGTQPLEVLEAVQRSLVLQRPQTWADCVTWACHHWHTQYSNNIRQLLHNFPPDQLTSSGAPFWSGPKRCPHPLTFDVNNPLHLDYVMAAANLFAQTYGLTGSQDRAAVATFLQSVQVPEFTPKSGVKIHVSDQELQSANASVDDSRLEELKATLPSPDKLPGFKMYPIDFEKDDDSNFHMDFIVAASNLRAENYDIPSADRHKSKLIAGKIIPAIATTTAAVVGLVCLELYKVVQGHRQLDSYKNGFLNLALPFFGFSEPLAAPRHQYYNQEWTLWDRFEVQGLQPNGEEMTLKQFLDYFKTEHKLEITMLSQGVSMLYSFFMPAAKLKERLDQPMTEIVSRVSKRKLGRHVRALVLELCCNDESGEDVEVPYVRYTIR

Row | Structure (SMILES) | pIC50 (recombinant human UAE) | anti-tumor activity [1]
1 | COc1ccc(C(C)(C)C)cc1-c1cc2nccc(N[C@@H]3C[C@H](COS(N)(=O)=O)[C@@H](O)[C@H]3O)n2n1 (racemic) [Compound I-063, (rac)-((1R,2R,3S,4R)-4-{[2-(5-tert-butyl-2-methoxyphenyl)pyrazolo[1,5-a]pyrimidin-7-yl]amino}-2,3-dihydroxycyclopentyl)methyl rel-sulfamate] | > 8.00 | –
2 | NS(=O)(=O)OC[C@H]1C[C@@H](Nc2ccnc3cc(-c4cccc5cc(C(=O)O)ccc45)nn23)[C@H](O)[C@@H]1O (relative stereo) [Compound I-099, (rac)-rel-5-[7-({(1R,2S,3R,4R)-2,3-dihydroxy-4-[(sulfamoyloxy)methyl]cyclopentyl}amino)pyrazolo[1,5-a]pyrimidin-2-y1]-2-naphthoic acid] | > 8.00 | –
3 | O=C1NN(c2ccc(F)c(Cl)c2)C(=O)/C1=C\c1ccc([N+](=O)[O-])o1 [PYZD-4409] | – | demonstrated anti-tumor activity
